# Source: patent US7030257B2, “Metallocenes and processes for their preparation” (Agency for Science, Technology and Research, priority 2004, dated 2006)
# Tested on: double-stranded DNA
# Assay: Competition experiment against ethidium bromide (EB) for binding to EB-saturated double-stranded DNA, gel electrophoresis fluorescence readout
# Text: A competition experiment was designed to obtain an estimate of the nucleic acid intercalating property of the compound of the invention. The basis of this methodology involves the use of two intercalators, one fluorescent and one non-fluorescent. The fluorescent intercalator first saturates the double-stranded DNA. Then a second intercalator, in this case VFcTMEDA, is introduced into the system with gradual increasing concentration. […] For the competition experiment, the changes in fluorescent intensity were monitored during the displacement of DNA-bound fluorescent molecules by VFcTMEDA through an increasing concentration of the VFcTMEDA molecules in the system. A well-known threading intercalator, ethidium bromide (EB), was chosen as our fluorescent indicator.
# Subsequently, VFcTMEDA was studied with respect to its ability to compete against EB for binding to DNA using the same approach. Different amounts of VFcTMEDA were mixed with the EB saturated double-stranded DNA to examine the bind ability. […] Lanes 1 to 5 correspond to different ratios of VFcTMEDA/EB.
substance,measurement,setting,value
vinylferrocene tetramethylethylenediamine [VFcTMEDA],enhancement of binding constant over EB,Kd of VFcTMEDA relative to EB,~26 fold
same,DNA-bound EB replaced,VFcTMEDA/EB molecular ratio 1/5 (second lane),more than 50%
